These results are taken from patent publication US20260053861A1, “CELL COMPOSITIONS AND METHODS OF USING THE SAME” (THE REGENTS OF THE UNIVERSITY OF CALIFORNIA, priority 2022, published 2026).

SMILES strings stand for the structures. Structures can show the parent of a compound that is named as a salt.

The first test has as its system hPSC-SCs.
Conditions: not given
`CC(=O)OCC1=C(C(=O)O)N2C(=O)[C@@H](N)[C@H]2SC1` [Cephalosporanic acid, 7-amino]: the z.score.t was −0.7049.
Still for that read-out and setting: in the case of `O=C(O)CCCc1ccc(N(CCCl)CCCl)cc1` [Chlorambucil] it was −1.263.
In turn, `CN1C(=O)CCS(=O)(=O)C1c1ccc(Cl)cc1` (stereo not shown) [Chlormezanone] showed a z.score.t of −0.5532.
`CCN(CC)CCCC(C)Nc1ccnc2cc(Cl)ccc12` (stereo not shown) [Chloroquine diphosphate] returned a z.score.t of 0.7847.

Staying with this test, now noted: HTS viability of hPSC-SCs in the presence of 30 mM glucose; Prestwick library; Table S4.
For the compound `CO[C@@]1(NC(=O)C2SC(=C(C(N)=O)C(=O)O)S2)C(=O)N2C(C(=O)O)=C(CSc3nnnn3C)CS[C@@H]21` (stereo partly shown) [Cefotetan], the z.score.t is reported as −0.4942.
`CN(C)CCn1nnnc1SCC1=C(C(=O)O)N2C(=O)[C@@H](NC(=O)Cc3csc(N)n3)[C@H]2SC1` [Cefotiam hydrochloride]: the z.score.t is on record as −1.122.
Same read-out and setting: as for `CO[C@@]1(NC(=O)Cc2cccs2)C(=O)N2C(C(=O)O)=C(COC(N)=O)CS[C@@H]21` [Cefoxitin sodium salt], the figure is 0.6964; as for `NC(=O)c1cc[n+](CC2=C(C(=O)O)N3C(=O)[C@@H](NC(=O)[C@@H](c4ccccc4)S(=O)(=O)[O-])[C@H]3SC2)cc1` [Cefsulodin sodium salt], −0.03362.
In the case of `CC(C)(O/N=C(\C(=O)N[C@@H]1C(=O)N2C(C(=O)[O-])=C(C[n+]3ccccc3)CS[C@H]12)c1csc(N)n1)C(=O)O` [Ceftazidime pentahydrate], the z.score.t is recorded as 0.563.
On the same count and under the same terms, as for `CO/N=C(\C(=O)N[C@@H]1C(=O)N2C(C(=O)O)=C(COC(N)=O)CS[C@H]12)c1ccco1` [Cefuroxime sodium salt], the figure is −0.8132; as for `CC1=C(C(=O)O)N2C(=O)[C@@H](NC(=O)[C@H](N)c3ccccc3)[C@H]2SC1` [Cephalexin monohydrate], 1.08; as for `CC(=O)OCC1=C(C(=O)O)N2C(=O)[C@@H](NC(=O)Cc3cccs3)[C@H]2SC1` [Cephalothin sodium salt], −1.359.
Regarding `O=C(O)COCCN1CCN(C(c2ccccc2)c2ccc(Cl)cc2)CC1` (stereo not shown) [Cetirizine dihydrochloride], the z.score.t was −0.3112.
The same measure, in the same setting: as for `C[C@H](CCC(=O)O)[C@H]1CC[C@H]2[C@@H]3[C@H](O)C[C@@H]4C[C@H](O)CC[C@]4(C)[C@H]3CC[C@]12C` [Chenodiol], the figure is 1.481.
For the compound `COc1cc(-c2ccc(N=Nc3ccc4c(S(=O)(=O)[O-])cc(S(=O)(=O)[O-])c(N)c4c3O)c(OC)c2)ccc1N=Nc1ccc2c(S(=O)(=O)[O-])cc(S(=O)(=O)[O-])c(N)c2c1O.[Na+].[Na+].[Na+].[Na+]` [Chicago sky blue 6B], the z.score.t stood at 0.6578.
With `O=C(N[C@H](CO)[C@H](O)c1ccc([N+](=O)[O-])cc1)C(Cl)Cl` [Chloramphenicol], the z.score.t came out at 1.278.
In the case of `CN1CCN(C(c2ccccc2)c2ccc(Cl)cc2)CC1` (stereo not shown) [Chlorcyclizine hydrochloride], the z.score.t was −1.754.
As for `[H]/N=C(\N/C(=N/[H])NCCCCCCNC(=N)NC(=N)Nc1ccc(Cl)cc1)Nc1ccc(Cl)cc1` [Chlorhexidine], the z.score.t is 1.056.
Turning to `O=C(/C=C/c1ccc(O)c(O)c1)O[C@@H]1C[C@](O)(C(=O)O)C[C@@H](O)[C@H]1O` [Chlorogenic acid], the z.score.t turned out to be 0.888.
As for `CN(C)CCN(Cc1ccc(Cl)cc1)c1ccccn1` [Chloropyramine hydrochloride], the z.score.t is listed as −0.5169.
In the case of `NS(=O)(=O)c1cc2c(cc1Cl)N=CNS2(=O)=O` [Chlorothiazide], the z.score.t is given as 1.171.
Consider `COc1ccc(C(Cl)=C(c2ccc(OC)cc2)c2ccc(OC)cc2)cc1` [Chlorotrianisene], for which the z.score.t is −0.5169.
`CN(C)CCC(c1ccc(Cl)cc1)c1ccccn1` (stereo not shown) [Chlorpheniramine maleate]: the z.score.t stood at 0.5452.
`NC(=O)OCC(O)COc1ccc(Cl)cc1` (stereo not shown) [Chlorphensin carbamate]: the z.score.t is on record as −0.09426.
In the case of `CN(C)CCCN1c2ccccc2Sc2ccc(Cl)cc21` [Chlorpromazine hydrochloride], the z.score.t is given as −1.622.
